pIC50: −log10 of the molar value.
Test system: MDA-MB-231 complex spheroids, growth inhibition
Assay: Anticancer human tumor MDA-MB-231 cell line growth inhibition [Asc];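 further: spheroids exposed to compounds for 7 days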
Conditions: for pIC50: curve of first compound; for viability, T/C: stronger effect = lower value
How it was run: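 Tumor cells were grown as multicellular spheroids with stromal HUVEC and mesenchymal stem cells and treated singly or in combination. Concentrations fell in half-log steps from the clinical Cmax, or from 10 microM where none was known.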

[1] = second compound 0.03 µM, first compound 0.0316 µM
[2] = second compound 0.03 µM, first compound 0.1 µM
[3] = second compound 0.03 µM, first compound 0.316 µM
[4] = second compound 0.03 µM, first compound 1 µM
[5] = second compound 0.03 µM, first compound 3.16 µM
[6] = second compound 0.03 µM, first compound 10 µM
[7] = second compound 0.0949 µM, first compound 0.0316 µM
[8] = second compound 0.0949 µM, first compound 0.1 µM
[9] = second compound 0.0949 µM, first compound 0.316 µM
[10] = second compound 0.0949 µM, first compound 1 µM
[11] = second compound 0.0949 µM, first compound 3.16 µM
[12] = second compound 0.0949 µM, first compound 10 µM
[13] = second compound 0.3 µM, first compound 0.0316 µM
[14] = second compound 0.3 µM, first compound 0.1 µM
[15] = second compound 0.3 µM, first compound 0.316 µM
[16] = second compound 0.3 µM, first compound 1 µM
[17] = second compound 0.3 µM, first compound 3.16 µM
[18] = second compound 0.3 µM, first compound 10 µM
[19] = second compound 0.949 µM, first compound 0.0316 µM
[20] = second compound 0.949 µM, first compound 0.1 µM
[21] = second compound 0.949 µM, first compound 0.316 µM
[22] = second compound 0.949 µM, first compound 1 µM
[23] = second compound 0.949 µM, first compound 3.16 µM
[24] = second compound 0.949 µM, first compound 10 µM
[25] = second compound 3 µM, first compound 0.0316 µM
[26] = second compound 3 µM, first compound 0.1 µM
[27] = second compound 3 µM, first compound 0.316 µM
[28] = second compound 3 µM, first compound 1 µM
[29] = second compound 3 µM, first compound 3.16 µM
[30] = second compound 3 µM, first compound 10 µM

## C=C(F)C(=O)N1CCN(c2nc(OCC3CCCN3C)nc3c2CCN(c2cccc4cccc(Cl)c24)C3)CC1CC#N (stereo not given) + CCN1C(C(=O)NC23CCC(C(=O)O)(CC2)CC3)C(c2cccc(Cl)c2F)C2(C(=O)Nc3cc(Cl)ccc32)C12CCCCC2
Second compound 0.03 µM
  pIC50: 5.48
Second compound 0.0949 µM
  pIC50: 5.49
Second compound 0.3 µM
  pIC50: 5.51
Second compound 0.949 µM
  pIC50: 5.44
Second compound 3 µM
  pIC50: 5.63
[1]
  viability, T/C: 102%
[2]
  viability, T/C: 101%
[3]
  viability, T/C: 88.1%
[4]
  viability, T/C: 90.2%
[5]
  viability, T/C: 51.2%
[6]
  viability, T/C: 0.47%
[7]
  viability, T/C: 100%
[8]
  viability, T/C: 108%
[9]
  viability, T/C: 97.9%
[10]
  viability, T/C: 97.1%
[11]
  viability, T/C: 50.7%
[12]
  viability, T/C: 0.33%
[13]
  viability, T/C: 112%
[14]
  viability, T/C: 107%
[15]
  viability, T/C: 110%
[16]
  viability, T/C: 105%
[17]
  viability, T/C: 48.9%
[18]
  viability, T/C: 0.55%
[19]
  viability, T/C: 112%
[20]
  viability, T/C: 116%
[21]
  viability, T/C: 114%
[22]
  viability, T/C: 107%
[23]
  viability, T/C: 57.3%
[24]
  viability, T/C: 1.4%
[25]
  viability, T/C: 94.3%
[26]
  viability, T/C: 99.5%
[27]
  viability, T/C: 97.6%
[28]
  viability, T/C: 86.9%
[29]
  viability, T/C: 37.7%
[30]
  viability, T/C: 0.24%

## C=CC(=O)N1CCN(c2nc(=O)n(-c3c(C)ccnc3C(C)C)c3nc(-c4c(O)cccc4F)c(F)cc23)C(C)C1 (stereo not given) + CCN1C(C(=O)NC23CCC(C(=O)O)(CC2)CC3)C(c2cccc(Cl)c2F)C2(C(=O)Nc3cc(Cl)ccc32)C12CCCCC2
Second compound 0.03 µM
  pIC50: < 5.00
Second compound 0.0949 µM
  pIC50: < 5.00
Second compound 0.3 µM
  pIC50: < 5.00
Second compound 0.949 µM
  pIC50: < 5.00
Second compound 3 µM
  pIC50: < 5.00
[1]
  viability, T/C: 97.4%
[2]
  viability, T/C: 97.9%
[3]
  viability, T/C: 103%
[4]
  viability, T/C: 104%
[5]
  viability, T/C: 102%
[6]
  viability, T/C: 106%
[7]
  viability, T/C: 108%
[8]
  viability, T/C: 107%
[9]
  viability, T/C: 112%
[10]
  viability, T/C: 109%
[11]
  viability, T/C: 116%
[12]
  viability, T/C: 120%
[13]
  viability, T/C: 101%
[14]
  viability, T/C: 103%
[15]
  viability, T/C: 110%
[16]
  viability, T/C: 118%
[17]
  viability, T/C: 121%
[18]
  viability, T/C: 108%
[19]
  viability, T/C: 113%
[20]
  viability, T/C: 113%
[21]
  viability, T/C: 120%
[22]
  viability, T/C: 118%
[23]
  viability, T/C: 129%
[24]
  viability, T/C: 121%
[25]
  viability, T/C: 96%
[26]
  viability, T/C: 107%
[27]
  viability, T/C: 109%
[28]
  viability, T/C: 114%
[29]
  viability, T/C: 115%
[30]
  viability, T/C: 112%
